Results: ChEMBL document CHEMBL2074370, “Are MDCK cells transfected with the human MDR1 gene a good model of the human intestinal mucosa?” (Pharm Res, 2002)

Legend:
[1] = molecular target: ATP-dependent translocase ABCB1 (Homo sapiens, UniProt P08183); assay: TP_TRANSPORTER: inhibition of Digoxin transepithelial transport (basal to apical) in MDR1-expressing MDCK cells; format: functional, cell-based
[2] = tested on: CC[C@]1(O)C[C@@H]2CN(CCc3c([nH]c4ccccc34)[C@@](C(=O)OC)(c3cc4c(cc3OC)N(C)[C@H]3[C@@](O)(C(=O)OC)[C@H](OC(C)=O)[C@]5(CC)C=CCN6CC[C@]43[C@@H]65)C2)C1; assay: TP_TRANSPORTER: transepithelial transport (basal to apical) in MDR1-expressing MDCK cells; format: functional, cell-based

ATP-dependent translocase ABCB1, sequence (P08183 whole entry): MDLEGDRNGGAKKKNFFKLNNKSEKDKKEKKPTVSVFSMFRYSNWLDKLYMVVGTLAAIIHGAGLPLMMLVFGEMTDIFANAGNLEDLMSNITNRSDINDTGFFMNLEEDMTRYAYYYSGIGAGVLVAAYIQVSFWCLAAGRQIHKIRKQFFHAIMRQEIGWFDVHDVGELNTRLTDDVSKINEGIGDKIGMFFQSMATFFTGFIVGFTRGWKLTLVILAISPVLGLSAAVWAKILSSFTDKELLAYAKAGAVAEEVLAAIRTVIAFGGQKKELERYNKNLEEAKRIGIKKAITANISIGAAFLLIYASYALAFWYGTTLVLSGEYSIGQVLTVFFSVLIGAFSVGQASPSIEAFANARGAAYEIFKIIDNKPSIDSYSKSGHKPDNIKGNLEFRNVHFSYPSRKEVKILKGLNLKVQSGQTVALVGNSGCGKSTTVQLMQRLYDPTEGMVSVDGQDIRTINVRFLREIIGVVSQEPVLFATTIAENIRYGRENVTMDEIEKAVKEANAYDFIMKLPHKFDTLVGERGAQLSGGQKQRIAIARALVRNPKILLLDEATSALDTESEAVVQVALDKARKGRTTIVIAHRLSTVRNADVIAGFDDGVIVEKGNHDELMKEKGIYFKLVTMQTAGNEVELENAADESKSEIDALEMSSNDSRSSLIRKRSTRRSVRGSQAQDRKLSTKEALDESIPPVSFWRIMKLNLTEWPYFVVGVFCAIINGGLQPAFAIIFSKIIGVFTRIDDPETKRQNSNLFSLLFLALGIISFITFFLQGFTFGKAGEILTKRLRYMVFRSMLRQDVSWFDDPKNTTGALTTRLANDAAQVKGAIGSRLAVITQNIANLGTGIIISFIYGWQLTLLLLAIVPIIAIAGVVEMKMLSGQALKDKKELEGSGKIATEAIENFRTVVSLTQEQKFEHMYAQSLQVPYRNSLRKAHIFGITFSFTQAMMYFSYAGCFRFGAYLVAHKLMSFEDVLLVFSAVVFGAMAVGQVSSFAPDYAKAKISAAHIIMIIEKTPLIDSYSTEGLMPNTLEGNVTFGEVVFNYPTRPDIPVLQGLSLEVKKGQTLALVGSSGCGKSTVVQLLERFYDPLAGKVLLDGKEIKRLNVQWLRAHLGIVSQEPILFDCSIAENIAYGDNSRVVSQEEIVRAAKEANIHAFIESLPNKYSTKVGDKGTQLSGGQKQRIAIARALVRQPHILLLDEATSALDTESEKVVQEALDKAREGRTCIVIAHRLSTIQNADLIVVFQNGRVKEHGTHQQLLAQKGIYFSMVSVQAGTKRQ

Molecule | Ki [1] [µM] | Km [2] [µM]
CC[C@]1(O)C[C@H]2CN(CCc3c([nH]c4ccccc34)[C@@](C(=O)OC)(c3cc4c(cc3OC)N(C=O)[C@H]3[C@@](O)(C(=O)OC)[C@H](OC(C)=O)[C@]5(CC)C=CCN6CC[C@]43[C@@H]65)C2)C1 [VINCRISTINE] | 213 | 
ATP-dependent translocase ABCB1 (Homo sapiens) |  | 253
COC(=O)[C@H]1[C@H]2C[C@@H]3c4[nH]c5cc(OC)ccc5c4CCN3C[C@H]2C[C@@H](OC(=O)c2cc(OC)c(OC)c(OC)c2)[C@@H]1OC [RESERPINE] | 11.5 | 
COc1cccc2c1C(=O)c1c(O)c3c(c(O)c1C2=O)C[C@@](O)(C(C)=O)C[C@@H]3O[C@H]1C[C@H](N)[C@H](O)[C@H](C)O1 [DAUNORUBICIN] | 111 | 
